In patent publication US20070161652A1, “Fungicidal mixtures” (BASF Aktiengesellschaft, priority 2004, published 2007):

Tested on: Plasmopara viticola
Assay: activity against peronospora of grapevines caused by Plasmopara viticola (protective spray test on potted vines)
Format: in vivo, Plasmopara viticola on vines of the cultivar "Riesling"
Conditions: individual active compound, untreated control 92% infection
Protocol: The active compounds, separately or jointly, were prepared as a stock solution comprising 0.25% by weight of active compound in acetone or DMSO. 1% by weight of the emulsifier Uniperol® EL (wetting agent having emulsifying and dispersant action based on ethoxylated alkylphenols) was added to this solution, and the mixture was diluted with water to the desired concentration.
Use example—activity against peronospora of grapevines caused by Plasmopara viticola Leaves of potted vines of the cultivar “Riesling” were sprayed to runoff point with an aqueous suspension having the concentration of active compound stated below. The next day, the undersides of the leaves were inoculated with an aqueous zoospore suspension of Plasmopara viticola. The grapevines were then initially placed in a water-vapor-saturated chamber at 24° C. for 48 hours and then in a greenhouse at 20-30° C. for 5 days. After this period of time, the plants were again placed in a humid chamber for 16 hours to promote sporangiophore eruption. The extent of the development of the disease on the undersides of the leaves was then determined visually.
The visually determined percentages of infected leaf areas were converted into efficacies in % of the untreated control:
The efficacy (E) is calculated as follows using Abbot's formula: E=(1−[…] )·100 α corresponds to the fungicidal infection of the treated plants in % and β corresponds to the fungicidal infection of the untreated (control) plants in % An efficacy of 0 means that the infection level of the treated plants corresponds to that of the untreated control plants; an efficacy of 100 means that the treated plants were not infected.
The expected efficacies of mixtures of active compounds were determined using Colby's formula (Colby, S. R. “Calculating synergistic and antagonistic responses of herbicide combinations”, Weeds, 15, 20-22, 1967) and compared with the observed efficacies.
Colby's formula: E=x+y−x·y/100
E expected efficacy, expressed in % of the untreated control, when using the mixture of the active compounds A and B at the concentrations a and b x efficacy, expressed in % of the untreated control, when using the active compound A at the concentration a y efficacy, expressed in % of the untreated control, when using the active compound B at the concentration b

SMILES	Efficacy in % of the untreated control (16 ppm in the spray liquor)	Efficacy in % of the untreated control (4 ppm in the spray liquor)	Efficacy in % of the untreated control (63 ppm in the spray liquor)
CC1CCN(c2c(-c3c(F)cc(F)cc3F)c(Cl)nc3ncnn23)CC1 [compound I, 5-chloro-7-(4-methylpiperidin-1-yl)-6-(2,4,6-trifluorophenyl)-[1,2,4]triazolo[1,5-a]pyrimidine]	56%	–	–
OC(c1ccc(Cl)cc1)(c1cncnc1)c1ccccc1Cl (stereo not shown) [compound II, (4-chlorophenyl)(2-chlorophenyl)pyrimidin-5-ylmethanol]	2%	2%	2%
